Converted amounts (≈) assume the structure as drawn.
Legend:
Type in all cases: functional
[1] = test system: Staphylococcus haemolyticus; assay: In vitro minimum inhibitory concentration against methicillin-susceptible Coagulase-negative Staphylococci (MSCNS) (GC 4551)
[2] = test system: Enterococcus faecalis; assay: In vitro minimum inhibitory concentration against vancomycin-resistant Enterococcus faecalis (GC 3059)
[3] = test system: Staphylococcus haemolyticus; assay: In vitro minimum inhibitory concentration against methicillin-resistant Coagulase-negative Staphylococci (MRCNS) (GC 4546))
[4] = test system: Streptococcus agalactiae; assay: In vitro minimum inhibitory concentration against Streptococcus agalactiae (GC4564)
[5] = test system: Staphylococcus aureus; assay: In vitro minimum inhibitory concentration against Staphylococcus aureus (10strains, including MRSA)
[6] = test system: Staphylococcus aureus; assay: In vitro minimum inhibitory concentration against glycopeptide tntermediate Staphylococcus aureus (GC 3066)
[7] = test system: Enterococcus faecium; assay: In vitro minimum inhibitory concentration against vancomycin-resistant Enterococcus faecium (GC 4558)
[8] = test system: Streptococcus pneumoniae; assay: In vitro minimum inhibitory concentration against Penicillin susceptible Streptococcus pneumoniae (GC 4565)
[9] = test system: Staphylococcus aureus; assay: In vitro minimum inhibitory concentration against Methicillin-resistant Staphylococcus aureus (GC 4543)
[10] = test system: Staphylococcus aureus; assay: In vitro minimum inhibitory concentration against Methicillin-resistant Staphylococcus aureus (GC 4542)
[11] = test system: Enterococcus faecium; assay: In vitro minimum inhibitory concentration against vancomycin-susceptible Enterococcus faecium (GC 4557)
[12] = test system: Micrococcus luteus; assay: In vitro minimum inhibitory concentration against Micrococcus lutea (GC 4562)
[13] = test system: Enterococcus faecalis; assay: In vitro minimum inhibitory concentration against vancomycin-susceptible Enterococcus faecalis (GC 4552)
[14] = test system: Staphylococcus aureus; assay: In vitro minimum inhibitory concentration against Methicillin-resistant Staphylococcus aureus (GC 1131)
[15] = test system: Enterococcus faecium; assay: In vitro minimum inhibitory concentration against vancomycin-resistant Enterococcus faecium (GC 2243)
[16] = test system: Streptococcus pyogenes; assay: In vitro minimum inhibitory concentration against Streptococcus pyogenes (GC 4563)
[17] = test system: Staphylococcus aureus; assay: In vitro minimum inhibitory concentration against Methicillin-resistant Staphylococcus aureus(GC 4545)
[18] = test system: Staphylococcus haemolyticus; assay: In vitro minimum inhibitory concentration against methicillin-susceptible Coagulase-negative Staphylococci (MSCNS) (GC 6257)
[19] = test system: Enterococcus faecalis; assay: In vitro minimum inhibitory concentration against vancomycin-resistant Enterococcus faecalis (GC 2242)
[20] = test system: Staphylococcus haemolyticus; assay: In vitro minimum inhibitory concentration against methicillin-resistant Coagulase-negative Staphylococci (MRCNS) (GC 4547))
[21] = test system: Enterococcus faecalis; assay: In vitro minimum inhibitory concentration against vancomycin-susceptible Enterococcus faecalis (GC 4553)
[22] = test system: Enterococcus faecalis; assay: In vitro minimum inhibitory concentration against vancomycin-susceptible Enterococcus faecalis (GC 4555)
[23] = test system: Staphylococcus aureus; assay: In vitro minimum inhibitory concentration against Methicillin-resistant Staphylococcus aureus (GC 2216)
[24] = test system: Staphylococcus haemolyticus; assay: In vitro minimum inhibitory concentration against methicillin-susceptible Coagulase-negative Staphylococci (MSCNS) (GC 4549))
[25] = test system: Enterococcus faecalis; assay: In vitro minimum inhibitory concentration against vancomycin-resistant Enterococcus faecalis (GC 6189)
[26] = test system: Streptococcus pneumoniae; assay: In vitro minimum inhibitory concentration against Penicillin resistant Streptococcus pneumoniae (GC 1894)
[27] = test system: Staphylococcus aureus; assay: In vitro minimum inhibitory concentration against Methicillin-resistant Staphylococcus aureus(GC 4541)
[28] = test system: Bacillus cereus; assay: In vitro minimum inhibitory concentration against Bacillus cereus (GC 4561) assay organism
[29] = test system: Staphylococcus aureus; assay: In vitro minimum inhibitory concentration against Methicillin-resistant Staphylococcus aureus(GC 4544)
[30] = test system: Streptococcus pneumoniae; assay: In vitro minimum inhibitory concentration against Penicillin susceptible Streptococcus pneumoniae (GC 6242)
[31] = test system: Enterococcus faecalis; assay: In vitro minimum inhibitory concentration against vancomycin-susceptible Enterococcus faecalis (GC 2691)
[32] = test system: Enterococcus faecalis; assay: In vitro minimum inhibitory concentration against vancomycin-susceptible Enterococcus faecalis (GC 4554)
[33] = test system: Staphylococcus aureus; assay: In vitro minimum inhibitory concentration against glycopeptide tntermediate Staphylococcus aureus (GC 3051)
[34] = test system: Staphylococcus haemolyticus; assay: In vitro minimum inhibitory concentration against methicillin-resistant Coagulase-negative Staphylococci (MRCNS) (GC 4548))
[35] = test system: Enterococcus faecium; assay: In vitro minimum inhibitory concentration against vancomycin-susceptible Enterococcus faecium (GC 4556)
[36] = test system: Enterococcus sp.; assay: In vitro minimum inhibitory concentration against Enterococcus species (11 strains, including VRE)
[37] = test system: Streptococcus; assay: In vitro minimum inhibitory concentration against Streptococcus Species (5 strains, including PRSP)

Row | Structure (SMILES) | MIC [1] [µg/mL] | MIC [2] [µg/mL] | MIC [3] [µg/mL] | MIC [4] [µg/mL] | MIC [5] [µg/mL] | MIC [6] [µg/mL] | MIC [7] [µg/mL] | MIC [8] [µg/mL] | MIC [9] [µg/mL] | MIC [10] [µg/mL] | MIC [11] [µg/mL] | MIC [12] [µg/mL] | MIC [13] [µg/mL] | MIC [14] [µg/mL] | MIC [15] [µg/mL] | MIC [16] [µg/mL] | MIC [17] [µg/mL] | MIC [18] [µg/mL] | MIC [36] [µg/mL] | MIC [37] [µg/mL] | also measured
1 | Cc1ccc(Oc2ccc(-c3nc4ccc(C[C@H]5NC(=O)[C@H]([C@@H](C)c6ccccc6)NC(=O)CNC(=O)[C@H](CO)NC(=O)[C@@H]([C@@H](O)[C@@H]6CN=C(N)N6[C@H]6O[C@H](CO)[C@@H](O)[C@H](O)[C@@H]6O)NC(=O)[C@H]([C@H](O)[C@@H]6CN=C(N)N6)NC5=O)cc4o3)cc2)cc1 | 4 (≈ 3.39 µM) | 8 (≈ 6.79 µM) | 4 (≈ 3.39 µM) | 4 (≈ 3.39 µM) | 4 (≈ 3.39 µM) | 4 (≈ 3.39 µM) | 4 (≈ 3.39 µM) | 4 (≈ 3.39 µM) | 4 (≈ 3.39 µM) | 8 (≈ 6.79 µM) | 4 (≈ 3.39 µM) | 1 (≈ 0.849 µM) | 8 (≈ 6.79 µM) | 8 (≈ 6.79 µM) | 8 (≈ 6.79 µM) | 1 (≈ 0.849 µM) | 4 (≈ 3.39 µM) | 2 (≈ 1.7 µM) | 4 (≈ 3.39 µM) | 1 (≈ 0.849 µM) | MIC [19]: 4 µg/mL (≈ 3.39 µM); MIC [20]: 8 µg/mL (≈ 6.79 µM); MIC [21]: 4 µg/mL (≈ 3.39 µM); MIC [22]: 8 µg/mL (≈ 6.79 µM); MIC [23]: 8 µg/mL (≈ 6.79 µM); MIC [24]: 4 µg/mL (≈ 3.39 µM); MIC [25]: 8 µg/mL (≈ 6.79 µM); MIC [26]: 4 µg/mL (≈ 3.39 µM); MIC [27]: 8 µg/mL (≈ 6.79 µM); MIC [28]: 8 µg/mL (≈ 6.79 µM); MIC [29]: 8 µg/mL (≈ 6.79 µM); MIC [30]: 4 µg/mL (≈ 3.39 µM); MIC [31]: 8 µg/mL (≈ 6.79 µM); MIC [32]: 8 µg/mL (≈ 6.79 µM); MIC [33]: 4 µg/mL (≈ 3.39 µM); MIC [34]: 4 µg/mL (≈ 3.39 µM); MIC [35]: 8 µg/mL (≈ 6.79 µM)
2 | C[C@@H](c1ccccc1)[C@@H]1NC(=O)CNC(=O)[C@H](CO)NC(=O)[C@@H]([C@@H](O)[C@@H]2CN=C(N)N2[C@H]2O[C@H](CO)[C@@H](O)[C@H](O)[C@@H]2O)NC(=O)[C@H]([C@H](O)[C@@H]2CN=C(N)N2)NC(=O)[C@@H](Cc2ccc3nc(-c4ccco4)oc3c2)NC1=O |  |  |  |  | 6 (≈ 5.65 µM) |  |  |  |  |  |  |  |  |  |  |  |  |  | 32 (≈ 30.1 µM) | 32 (≈ 30.1 µM) | 
3 | C[C@@H](c1ccccc1)[C@@H]1NC(=O)CNC(=O)[C@H](CO)NC(=O)[C@@H]([C@@H](O)[C@@H]2CN=C(N)N2[C@H]2O[C@H](CO)[C@@H](O)[C@H](O)[C@@H]2O)NC(=O)[C@H]([C@H](O)[C@@H]2CN=C(N)N2)NC(=O)[C@@H](Cc2ccc3nc(SCC(=O)c4ccc(Cl)cc4)oc3c2)NC1=O | 4 (≈ 3.39 µM) | 32 (≈ 27.1 µM) | 1 (≈ 0.847 µM) | 4 (≈ 3.39 µM) | 2 (≈ 1.69 µM) | 4 (≈ 3.39 µM) | 4 (≈ 3.39 µM) | 8 (≈ 6.78 µM) | 2 (≈ 1.69 µM) | 4 (≈ 3.39 µM) | 2 (≈ 1.69 µM) | 16 (≈ 13.6 µM) | 2 (≈ 1.69 µM) | 4 (≈ 3.39 µM) | 8 (≈ 6.78 µM) | 2 (≈ 1.69 µM) | 2 (≈ 1.69 µM) | 1 (≈ 0.847 µM) | 2 (≈ 1.69 µM) | 2 (≈ 1.69 µM) | MIC [19]: 16 µg/mL (≈ 13.6 µM); MIC [20]: 4 µg/mL (≈ 3.39 µM); MIC [21]: 4 µg/mL (≈ 3.39 µM); MIC [22]: 16 µg/mL (≈ 13.6 µM); MIC [23]: 8 µg/mL (≈ 6.78 µM); MIC [24]: 1 µg/mL (≈ 0.847 µM); MIC [25]: 16 µg/mL (≈ 13.6 µM); MIC [26]: 8 µg/mL (≈ 6.78 µM); MIC [27]: 4 µg/mL (≈ 3.39 µM); MIC [28]: 1 µg/mL (≈ 0.847 µM); MIC [29]: 4 µg/mL (≈ 3.39 µM); MIC [30]: 8 µg/mL (≈ 6.78 µM); MIC [31]: 16 µg/mL (≈ 13.6 µM); MIC [32]: 16 µg/mL (≈ 13.6 µM); MIC [33]: 4 µg/mL (≈ 3.39 µM); MIC [34]: 2 µg/mL (≈ 1.69 µM); MIC [35]: 8 µg/mL (≈ 6.78 µM)
